Reference: paper PMC5218480 (PLoS ONE, 2017)

System: MV-4-11 cells
Assay: Gene expression microarray analysis (Affymetrix PrimeView) and GSEA
Assay type: cell-based, human
Parameters: RFU PODN (11730768_x_at) / Fold change /veh PODN (11730768_x_at) / RFU LINC00158 (11744669_a_at) / Fold change /veh LINC00158 (11744669_a_at) / RFU DUSP10 (11751237_a_at) / Fold change /veh DUSP10 (11751237_a_at) / RFU ID3 (11757404_x_at) / Fold change /veh ID3 (11757404_x_at) / RFU PLEKHG5 (11737974_s_at) / Fold change /veh PLEKHG5 (11737974_s_at) / RFU LRRC4B (11730491_at) / Fold change /veh LRRC4B (11730491_at) / RFU GIMAP4 (11747438_a_at) / Fold change /veh GIMAP4 (11747438_a_at) / RFU KRT8 (11758183_x_at) / Fold change /veh KRT8 (11758183_x_at) / RFU CNN1 (11734310_a_at) / Fold change /veh CNN1 (11734310_a_at) / RFU VPS37D (11726825_at) / Fold change /veh VPS37D (11726825_at) / RFU C10orf10 (11716522_x_at) / Fold change /veh C10orf10 (11716522_x_at) / RFU KIR2DL2 /// KIR2DL4 /// KIR2DL5A /// KIR2DL5B /// KIR2DS1 /// KIR2DS2 /// KIR2DS3 /// KIR2DS4 /// KIR3DL3 /// KIR3DL3 /// KIR3DS1 (11738374_at) / Fold change /veh KIR2DL2 /// KIR2DL4 /// KIR2DL5A /// KIR2DL5B /// KIR2DS1 /// KIR2DS2 /// KIR2DS3 /// KIR2DS4 /// KIR3DL3 /// KIR3DL3 /// KIR3DS1 (11738374_at) / RFU C1QL1 (11718748_at) / Fold change /veh C1QL1 (11718748_at) / RFU TMPRSS4 (11747572_a_at) / Fold change /veh TMPRSS4 (11747572_a_at) / RFU HAMP (11756126_x_at) / Fold change /veh HAMP (11756126_x_at) / RFU RNFT2 (11725882_a_at) / Fold change /veh RNFT2 (11725882_a_at) / RFU NR4A2 (11747474_a_at) / Fold change /veh NR4A2 (11747474_a_at) / RFU ABCC12 (11746883_a_at) / Fold change /veh ABCC12 (11746883_a_at) / RFU TMEM136 (11760407_x_at) / Fold change /veh TMEM136 (11760407_x_at) / RFU CLDN22 /// WWC2 (11732394_at) / Fold change /veh CLDN22 /// WWC2 (11732394_at) / RFU HLA-DPB1 (11760878_x_at) / Fold change /veh HLA-DPB1 (11760878_x_at) / RFU SPINT1 (11716480_a_at) / Fold change /veh SPINT1 (11716480_a_at) / RFU GAP43 (11754022_s_at) / Fold change /veh GAP43 (11754022_s_at) / RFU A4GNT (11735810_at) / Fold change /veh A4GNT (11735810_at) / RFU PRB3 (11715151_x_at) / Fold change /veh PRB3 (11715151_x_at) / RFU TUBB4B (11761932_at) / Fold change /veh TUBB4B (11761932_at) / RFU CAPN14 (11732068_a_at) / Fold change /veh CAPN14 (11732068_a_at) / RFU TMCC2 (11721928_a_at) / Fold change /veh TMCC2 (11721928_a_at) / RFU IRGQ (11745062_a_at) / Fold change /veh IRGQ (11745062_a_at) / RFU FAM174B (11720279_a_at) / Fold change /veh FAM174B (11720279_a_at) / RFU TMPRSS4 (11748680_a_at) / Fold change /veh TMPRSS4 (11748680_a_at) / RFU FAM212B (11763350_a_at) / Fold change /veh FAM212B (11763350_a_at) / RFU PLEKHG5 (11743358_a_at) / Fold change /veh PLEKHG5 (11743358_a_at) / RFU ZSCAN30 (11745921_a_at) / Fold change /veh ZSCAN30 (11745921_a_at) / RFU CMKLR1 (11741424_a_at) / Fold change /veh CMKLR1 (11741424_a_at) / RFU LOC101060620 /// MAPK8IP1 (11723275_at) / Fold change /veh LOC101060620 /// MAPK8IP1 (11723275_at) / RFU SPTSSB (11747773_x_at) / Fold change /veh SPTSSB (11747773_x_at) / RFU PRSS12 (11739890_at) / Fold change /veh PRSS12 (11739890_at) / RFU BIN1 (11741810_x_at) / Fold change /veh BIN1 (11741810_x_at) / RFU WNT11 (11732464_a_at) / Fold change /veh WNT11 (11732464_a_at) / RFU C10orf10 (11716521_a_at) / Fold change /veh C10orf10 (11716521_a_at) / RFU C5orf56 (11738089_at) / Fold change /veh C5orf56 (11738089_at) / RFU CYB561 (11721691_x_at) / Fold change /veh CYB561 (11721691_x_at) / RFU ANKRD19P (11752326_a_at) / Fold change /veh ANKRD19P (11752326_a_at) / RFU OR2T12 /// OR2T33 /// OR2T8 (11738714_s_at) / Fold change /veh OR2T12 /// OR2T33 /// OR2T8 (11738714_s_at) / RFU VCAN (11748164_a_at) / Fold change /veh VCAN (11748164_a_at) / RFU JSRP1 (11732532_at) / Fold change /veh JSRP1 (11732532_at) / RFU KRTAP10-11 (11738290_x_at) / Fold change /veh KRTAP10-11 (11738290_x_at) / RFU MYO3A (11730013_a_at) / Fold change /veh MYO3A (11730013_a_at) / RFU EBF3 (11725865_a_at) / Fold change /veh EBF3 (11725865_a_at) / RFU CAMK2N1 (11719241_x_at) / Fold change /veh CAMK2N1 (11719241_x_at) / RFU C5orf56 (11738088_a_at) / Fold change /veh C5orf56 (11738088_a_at) / RFU OLFML3 (11715873_a_at) / Fold change /veh OLFML3 (11715873_a_at) / RFU LOC100653217 /// NTM (11731650_a_at) / Fold change /veh LOC100653217 /// NTM (11731650_a_at) / RFU MAPK11 (11762145_a_at) / Fold change /veh MAPK11 (11762145_a_at) / RFU FIZ1 (11724087_x_at) / Fold change /veh FIZ1 (11724087_x_at) / RFU OASL (11726364_x_at) / Fold change /veh OASL (11726364_x_at) / RFU SOX15 (11748057_x_at) / Fold change /veh SOX15 (11748057_x_at) / RFU CD79A (11719716_a_at) / Fold change /veh CD79A (11719716_a_at) / RFU HIST1H1D (11736915_at) / Fold change /veh HIST1H1D (11736915_at) / RFU CASKIN2 (11723855_a_at) / Fold change /veh CASKIN2 (11723855_a_at) / RFU LOC730098 (11760151_x_at) / Fold change /veh LOC730098 (11760151_x_at) / RFU OR4N2 (11742367_at) / Fold change /veh OR4N2 (11742367_at) / RFU PRRT2 (11749266_a_at) / Fold change /veh PRRT2 (11749266_a_at) / RFU SNX32 (11753110_a_at) / Fold change /veh SNX32 (11753110_a_at) / RFU CDHR5 (11726645_a_at) / Fold change /veh CDHR5 (11726645_a_at) / RFU RCAN1 (11760418_a_at) / Fold change /veh RCAN1 (11760418_a_at) / RFU FAM167A (11723789_a_at) / Fold change /veh FAM167A (11723789_a_at) / RFU FAM26E (11764081_at) / Fold change /veh FAM26E (11764081_at) / RFU ISYNA1 (11749810_s_at) / Fold change /veh ISYNA1 (11749810_s_at) / RFU ACY1 (11761880_at) / Fold change /veh ACY1 (11761880_at) / RFU 11764098_at / Fold change /veh 11764098_at / RFU SAMD14 (11745864_x_at) / Fold change /veh SAMD14 (11745864_x_at) / RFU NPB (11741838_a_at) / Fold change /veh NPB (11741838_a_at) / RFU TMPRSS6 (11731388_a_at) / Fold change /veh TMPRSS6 (11731388_a_at) / RFU KRTAP10-2 (11738614_at) / Fold change /veh KRTAP10-2 (11738614_at) / RFU ARHGAP8 /// PRR5-ARHGAP8 (11727945_x_at) / Fold change /veh ARHGAP8 /// PRR5-ARHGAP8 (11727945_x_at) / RFU KRTAP5-7 /// NADSYN1 (11734609_at) / Fold change /veh KRTAP5-7 /// NADSYN1 (11734609_at) / RFU RASL12 (11751679_a_at) / Fold change /veh RASL12 (11751679_a_at) / RFU CDKN2B (11736163_a_at) / Fold change /veh CDKN2B (11736163_a_at) / RFU PRF1 (11729649_at) / Fold change /veh PRF1 (11729649_at) / RFU, ZNF638 /// ZNF638-IT1 / Fold change vs veh, ZNF638 /// ZNF638-IT1 / RFU, PANK3 / Fold change vs veh, PANK3 / RFU, SH3YL1 / Fold change vs veh, SH3YL1 / RFU, ZEB2 / Fold change vs veh, ZEB2 / RFU, NRIP1 / Fold change vs veh, NRIP1 / RFU, PTTG1IP / Fold change vs veh, PTTG1IP / RFU, CAPN2 / Fold change vs veh, CAPN2 / RFU, MED14 / Fold change vs veh, MED14 / RFU, SNORA58 / Fold change vs veh, SNORA58 / RFU, C1orf63 / Fold change vs veh, C1orf63 / RFU, LRRFIP1 / Fold change vs veh, LRRFIP1 / RFU, NDUFAF7 / Fold change vs veh, NDUFAF7 / RFU, SLC12A2 / Fold change vs veh, SLC12A2 / RFU, IBTK / Fold change vs veh, IBTK / RFU, ESF1 / Fold change vs veh, ESF1 / Fold change vs veh, TMEM50B / RFU, TAOK1 / Fold change vs veh, TAOK1 / RFU, ACBD3 / Fold change vs veh, ACBD3 / RFU, TMA16 / Fold change vs veh, TMA16 / RFU, RWDD3 / Fold change vs veh, RWDD3 / RFU, BCAT1 / Fold change vs veh, BCAT1 / RFU, EDEM3 / Fold change vs veh, EDEM3 / RFU, TMEM33 / Fold change vs veh, TMEM33 / RFU, WDR75 / Fold change vs veh, WDR75 / RFU, AHCTF1 / Fold change vs veh, AHCTF1 / RFU, TFRC / Fold change vs veh, TFRC / RFU, ZDHHC17 / Fold change vs veh, ZDHHC17 / RFU, NOM1 / Fold change vs veh, NOM1 / RFU, ARL8B / Fold change vs veh, ARL8B / RFU, ZBTB11 / Fold change vs veh, ZBTB11 / RFU, TAMM41 / Fold change vs veh, TAMM41 / RFU, KIAA1704 /// LOC100996395 / Fold change vs veh, KIAA1704 /// LOC100996395 / RFU, ING1 / Fold change vs veh, ING1 / RFU, TRMT61B / Fold change vs veh, TRMT61B / RFU, FUBP3 / Fold change vs veh, FUBP3 / RFU, TP53 / Fold change vs veh, TP53 / RFU, TNKS2 / Fold change vs veh, TNKS2 / RFU, ZFP14 / Fold change vs veh, ZFP14 / RFU, ACTR2 / Fold change vs veh, ACTR2 / RFU, PPP3R1 / Fold change vs veh, PPP3R1 / RFU, PIK3R1 / Fold change vs veh, PIK3R1 / RFU, HNRNPA1 / Fold change vs veh, HNRNPA1 / RFU, RNF170 / Fold change vs veh, RNF170 / RFU, ZNF28 / Fold change vs veh, ZNF28 / RFU, RNGTT / Fold change vs veh, RNGTT / RFU, OGT / Fold change vs veh, OGT / RFU, BRD1 / Fold change vs veh, BRD1 / RFU, MARS / Fold change vs veh, MARS / RFU, ZNF655 / Fold change vs veh, ZNF655 / RFU, FAHD1 / Fold change vs veh, FAHD1 / RFU, BDP1 / Fold change vs veh, BDP1 / RFU, LRRCC1 / Fold change vs veh, LRRCC1 / RFU, ARID1A / Fold change vs veh, ARID1A / RFU, ZNF146 / Fold change vs veh, ZNF146 / RFU, ZNF330 / Fold change vs veh, ZNF330 / RFU, GPN3 / Fold change vs veh, GPN3 / RFU, C9orf123 / Fold change vs veh, C9orf123 / RFU, N4BP2L2 / Fold change vs veh, N4BP2L2 / RFU, ARFIP1 / Fold change vs veh, ARFIP1 / RFU, FAM179B / Fold change vs veh, FAM179B / RFU, BCL10 / Fold change vs veh, BCL10 / RFU, UHRF1BP1L / Fold change vs veh, UHRF1BP1L / RFU, BET1 / Fold change vs veh, BET1 / RFU, CNOT2 / Fold change vs veh, CNOT2 / RFU, ZNF268 / Fold change vs veh, ZNF268 / Fold change vs veh, ZNF507 / RFU, DGCR2 / Fold change vs veh, DGCR2 / RFU, WDSUB1 / Fold change vs veh, WDSUB1 / Fold change vs veh, HSP90B1 /// MIR3652 / RFU, ADSS / Fold change vs veh, ADSS / RFU, GK / Fold change vs veh, GK / RFU, ZNF148 / Fold change vs veh, ZNF148 / RFU, TAF9 / Fold change vs veh, TAF9 / RFU, SLC1A5 / Fold change vs veh, SLC1A5 / RFU, SLMO2 / Fold change vs veh, SLMO2 / RFU, ABCC4 / Fold change vs veh, ABCC4 / RFU, LOC101060439 /// RAP1B / Fold change vs veh, LOC101060439 /// RAP1B / RFU, RFX7 / Fold change vs veh, RFX7 / RFU, GTPBP10 / Fold change vs veh, GTPBP10 / RFU, CNEP1R1 / Fold change vs veh, CNEP1R1 / RFU, BIVM-ERCC5 /// ERCC5 / Fold change vs veh, BIVM-ERCC5 /// ERCC5 / RFU, ILF3 / Fold change vs veh, ILF3 / RFU 11762660_at / Fold change /veh 11762660_at / RFU VCAN (11757783_s_at) / Fold change /veh VCAN (11757783_s_at) / RFU DDX43 (11728927_at) / Fold change /veh DDX43 (11728927_at) / RFU KRT8 (11758188_x_at) / Fold change /veh KRT8 (11758188_x_at) / RFU NKD1 (11759106_at) / Fold change /veh NKD1 (11759106_at) / RFU SRD5A1 (11742802_a_at) / Fold change /veh SRD5A1 (11742802_a_at) / RFU TPSAB1 /// TPSB2 (11721975_s_at) / Fold change /veh TPSAB1 /// TPSB2 (11721975_s_at) / RFU GSTM3 (11746129_a_at) / Fold change /veh GSTM3 (11746129_a_at) / RFU IL23R (11737362_x_at) / Fold change /veh IL23R (11737362_x_at) / RFU TMEM51 (11727254_a_at) / Fold change /veh TMEM51 (11727254_a_at) / RFU PIWIL2 (11732686_x_at) / Fold change /veh PIWIL2 (11732686_x_at) / RFU ORM1 (11744905_x_at) / Fold change /veh ORM1 (11744905_x_at) / RFU CCDC152 (11743942_at) / Fold change /veh CCDC152 (11743942_at) / RFU ECM1 (11717891_a_at) / Fold change /veh ECM1 (11717891_a_at) / RFU IL23R (11748794_a_at) / Fold change /veh IL23R (11748794_a_at) / RFU TNFAIP8L3 (11732012_x_at) / Fold change /veh TNFAIP8L3 (11732012_x_at) / RFU MBOAT4 (11741988_at) / Fold change /veh MBOAT4 (11741988_at) / RFU 11764193_at / Fold change /veh 11764193_at / RFU TMEM53 (11763286_at) / Fold change /veh TMEM53 (11763286_at) / RFU MAGEB2 (11727129_at) / Fold change /veh MAGEB2 (11727129_at) / RFU TMEM200A (11744735_a_at) / Fold change /veh TMEM200A (11744735_a_at) / RFU CCDC152 (11751479_a_at) / Fold change /veh CCDC152 (11751479_a_at) / RFU FAM211A (11726209_a_at) / Fold change /veh FAM211A (11726209_a_at) / RFU RGS16 (11746705_a_at) / Fold change /veh RGS16 (11746705_a_at) / RFU VCAN (11755009_s_at) / Fold change /veh VCAN (11755009_s_at) / RFU RHOB (11743442_s_at) / Fold change /veh RHOB (11743442_s_at) / RFU RGS16 (11720943_a_at) / Fold change /veh RGS16 (11720943_a_at) / RFU RGS16 (11720944_at) / Fold change /veh RGS16 (11720944_at) / RFU, VPS4B / Fold change vs veh, VPS4B / RFU, CREB1 / Fold change vs veh, CREB1 / RFU, DNAJC13 / Fold change vs veh, DNAJC13 / RFU, GNAQ / Fold change vs veh, GNAQ / RFU, CDK5R1 / Fold change vs veh, CDK5R1 / RFU, ZRANB3 / Fold change vs veh, ZRANB3 / RFU, CUL4A / Fold change vs veh, CUL4A / RFU, CCNY / Fold change vs veh, CCNY / RFU, UFL1 / Fold change vs veh, UFL1 / RFU, COG3 / Fold change vs veh, COG3 / RFU, DIAPH2 / Fold change vs veh, DIAPH2 / RFU, SKA2 / Fold change vs veh, SKA2 / RFU, AFF3 / Fold change vs veh, AFF3 / RFU, LMF1 / Fold change vs veh, LMF1 / RFU, IPO11 / Fold change vs veh, IPO11 / RFU, DFFB / Fold change vs veh, DFFB / RFU, FOXP1 / Fold change vs veh, FOXP1 / RFU, CARD8 / Fold change vs veh, CARD8 / RFU, STRN3 / Fold change vs veh, STRN3 / RFU, ADK / Fold change vs veh, ADK / RFU, RASSF2 / Fold change vs veh, RASSF2 / RFU, WIPF1 / Fold change vs veh, WIPF1 / RFU, LARP1B / Fold change vs veh, LARP1B / RFU, RASA1 / Fold change vs veh, RASA1 / RFU, RB1 / Fold change vs veh, RB1 / RFU, PPFIA1 / Fold change vs veh, PPFIA1 / RFU, MAT2A / Fold change vs veh, MAT2A / RFU, CCT5 / Fold change vs veh, CCT5 / RFU, WDR92 / Fold change vs veh, WDR92 / RFU, CUX1 / Fold change vs veh, CUX1 / RFU, TTC7A / Fold change vs veh, TTC7A / RFU, TMEM135 / Fold change vs veh, TMEM135 / RFU, DEPTOR / Fold change vs veh, DEPTOR / RFU, CPM / Fold change vs veh, CPM / RFU, DNAJB6 / Fold change vs veh, DNAJB6 / RFU, CACNA2D3 / Fold change vs veh, CACNA2D3 / RFU, DTX4 / Fold change vs veh, DTX4 / RFU, TFCP2 / Fold change vs veh, TFCP2 / RFU, GMCL1 /// GMCL1P1 / Fold change vs veh, GMCL1 /// GMCL1P1 / RFU, AEBP2 / Fold change vs veh, AEBP2 / RFU, SNHG1 /// SNORD22 /// SNORD25 /// SNORD26 /// SNORD27 /// SNORD28 /// SNORD29 /// SNORD31 / Fold change vs veh, SNHG1 /// SNORD22 /// SNORD25 /// SNORD26 /// SNORD27 /// SNORD28 /// SNORD29 /// SNORD31 / Fold change (Aza/veh), C12orf56 (ProbeSet 11735607_a_at) / Fold change (ACY-1035/veh), C12orf56 (ProbeSet 11735607_a_at) / Fold change (Aza/veh), FGFR1OP (ProbeSet 11751329_s_at) / Fold change (ACY-1035/veh), FGFR1OP (ProbeSet 11751329_s_at) / Fold change (Aza/veh), VPS36 (ProbeSet 11739960_a_at) / Fold change (ACY-1035/veh), VPS36 (ProbeSet 11739960_a_at) / RFU SYPL1 (11715823_x_at) / Fold change /veh SYPL1 (11715823_x_at) / RFU IGFBP7 (11715501_s_at) / Fold change /veh IGFBP7 (11715501_s_at) / RFU REEP3 (11722064_at) / Fold change /veh REEP3 (11722064_at) / RFU IGLL1 (11728026_x_at) / Fold change /veh IGLL1 (11728026_x_at): dose or concentration left out as unconfirmed
Settings: MV-4-11 cells, 48 hours

Nc1ccc(-c2cccs2)cc1NC(=O)c1ccc2c(c1)cc(C1CC1)n2CCN1CCOCC1 [ACY-1035]
RFU PLEKHG5 (11737974_s_at): 47.67 RFU
